Each structure is given as a SMILES string.

The subject of this assay is T1, LiP (lignin peroxidase) of T. versicolor IBL-04.
T1 construct: native secreted enzyme purified from solid-state culture on corncobs (ammonium sulfate, Sephadex G-100, DEAE-cellulose); monomer, 30 kDa on SDS and native PAGE
Put plainly: veratryl alcohol oxidation to veratraldehyde at […] nm, Lineweaver-Burk. It is filed as biochemical, Trametes versicolor. As to conditions: free enzyme; H2O2 co-substrate; incubated 15 min at 25°C in citrate phosphate pH 6.0 before assay; 100-1000 μM substrate.

Consider `COc1ccc(CO)cc1OC` [veratryl alcohol], for which the Km is 70 µM.

The values are drawn from publication PMC3442999, “Characterization of purified and Xerogel immobilized Novel Lignin Peroxidase produced from Trametes versicolor IBL-04 using solid state medium of Corncobs” (BMC Biotechnology, 2012).
